{"source": "patent US11684611B2", "about": "“Compounds for treating diseases associated with a mitochondrial dysfunction” (Amabiotics, priority 2016, dated 2023)", "molecules": {"B1": {"name": "BDNF: brain-derived neurotrophic factor, obtained from PanBiotech, used as positive control (protein, UniProt P23560 19-247, looked up)", "Neurotrophic factor BDNF …": "APMKEANIRGQGGLAYPGVRTHGTLESVNGPKAGSRGLTSLADTFEHVIEELLDEDQKVRPNEENNKDADLYTSRVMLSSQVPLEPPLLFLLEEYKNYLDAANMSMRVRRHSDPARRGELSVCDSISEWVTAADKKTAVDMSGGTVTVLEKVPVSKGQLKQYFYETKCNPMGYTKEGCRGIDKRHWNSQCRTTQSYVRALTMDSKKRIGWRFIRIDTSCVCTLTIKRGR"}}, "test_system": "rat primary dopaminergic neurons (TH positive neurons)", "assay": "Neuroprotective effect on rat primary cultures of dopaminergic neurons injured by 6-OHDA (count of TH positive neurons)", "assay_type": "cell-based", "details": "for survival of primary dopaminergic neuron culture (TH positive neurons), % of control: p<0.05 vs 6-OHDA", "description": "Accordingly, this study investigates the effect of queuine on rat primary mesencephalic cultures injured by exposure to 6-OHDA.\nRat dopaminergic neurons are cultured as described by Schinelli et al. (1988) J. Neurochem. 50:1900-1907.\nBriefly, pregnant female rats (Wistar rats; Janvier) at 15 days of gestation are killed by cervical dislocation and the fetuses are removed from the uterus. The embryonic midbrains is removed and placed in ice-cold Leibovitz medium (L15; PanBiotech) containing 2% of Penicillin-Streptomycin (PS; PanBiotech) and 1% of bovine serum albumin (BSA; PanBiotech). Only the ventral portions of the mesencephalic flexure is used for cell preparations as this is the region of the developing brain rich in dopaminergic neurons. The midbrain is dissociated by trypsinisation for 20 min at 37° C. (Trypsin EDTA 1X; PanBiotech). The reaction is stopped by the addition of Dulbecco's modified Eagle's medium (DMEM; PanBiotech) containing DNAse I grade II (0.1 mg/mL; Roche Diagnostic) and 10% of fetal calf serum (FCS; Invitrogen). The cells are mechanically dissociated by 3 passages through a 10 ml pipette. The dissociated cells are then centrifuged at 180×g for 10 min at 4° C. on a layer of BSA (3.5%) in L15 medium. The supernatant is discarded and the pelleted cells are re-suspended in a culture medium consisting of Neurobasal (Invitrogen, Ref: 21103, Batch: 1725098) supplemented with B27 (2%; Invitrogen, ref: 17504), L-glutamine (2 mM; PanBiotech, Ref: P04-80100) and 2% of PS, 10 ng/mL of BDNF (PanBiotech, Ref: CB-1115002) and 1 ng/mL of GDNF (PanBiotech, Ref: CB-1116001). Viable cells are counted in a Neubauer cytometer using the trypan blue exclusion test. The cells are then seeded at a density of 40 000 cells/well in 96 well-plates pre-coated with poly-D-lysine (Greiner) and are cultured at 37° C. in a humidified air (95%)/CO2 (5%) atmosphere. Half of the medium is changed every 2 days with fresh medium. In these conditions, after 5 days of culture, astrocytes are present in the culture and release growth factor allowing neurons differentiation. Five to six percent of the neuronal cell population are dopaminergic neurons.\nEach condition is replicated in six wells of the 96-wells culture plates. 1.4. End Point Evaluation: Determination of the Total Number of Dopaminergic Neurons\nAt the end of the incubation time, the cells are fixed by a solution of 4% paraformaldehyde for 20 min at room temperature. The cells are then permeabilized and non-specific sites are blocked with a solution of phosphate buffered saline (PBS; PanBiotech) containing 0.1% of saponin (Sigma) and 1% fetal calf serum (FCS) for 15 min at room temperature. Eventually, the cells are incubated with a monoclonal anti-Tyrosine Hydroxylase (TH) mouse antibody (Sigma) in PBS containing 1% FCS and 0.1% saponin, for 2 h at room temperature. The anti-TH antibody targets dopaminergic neurons.\nThe nuclei of the cells is stained by a fluorescent marker (Hoechst solution, SIGMA) in the same solution.\nFor each condition, 20 pictures per well are taken using InCell Analyzer™ 2000 (GE Healthcare) with 20× magnification. Images of each culture well are also taken.\nThe analysis of the cell bodies of TH positive neurons are performed using Developer software (GE healthcare). A total of 6 data per experimental condition is provided. All values are expressed as mean±s.e. mean. For statistical analyses ANOVA is performed followed by Dunnett's test.", "data": [{"molecule": "NCCc1cc(O)c(O)cc1O", "note": "[6-OHDA, 6-hydroxydopamine, reference compound]", "values": [{"measurement": "effect on number of TH positive neurons", "setting": "6-OHDA alone at 20 μM for 48 h, FIG. 1 and FIG. 2", "value": "large and significant decrease"}]}, {"molecule": "Nc1nc2[nH]cc(CN[C@H]3C=C[C@H](O)[C@@H]3O)c2c(=O)[nH]1", "note": "[queuine, 7-(3,4-trans-4,5-cis-dihydroxy-1-cyclopenten-3-ylaminomethyl)-7-deazaguanine]", "values": [{"measurement": "effect on 6-OHDA-induced neurotoxicity", "setting": "preliminary results, rat primary mesencephalic cultures", "value": "neuroprotective effect"}, {"measurement": "survival of primary dopaminergic neuron culture (TH positive neurons), % of control", "setting": "queuine 0.3 μM added 6 days before 6-OHDA intoxication (20 μM, 48 h), FIG. 2", "value": "80.47 % of the control"}, {"measurement": "survival of primary dopaminergic neuron culture (TH positive neurons), % of control", "setting": "queuine 1 μM added 1 day (24 hours) before 6-OHDA intoxication (20 μM, 48 h), FIG. 1", "value": "81.33 % of the control"}]}, {"molecule": "B1", "values": [{"measurement": "survival of primary dopaminergic neuron culture (TH positive neurons), % of control", "setting": "BDNF 50 ng/mL applied 1 day before 6-OHDA intoxication (20 μM, 48 h), FIG. 1", "value": "80.80 % of the control"}, {"measurement": "survival of primary dopaminergic neuron culture (TH positive neurons), % of control", "setting": "BDNF 50 ng/mL applied 6 days before 6-OHDA intoxication (20 μM, 48 h), FIG. 2", "value": "83.44 % of the control"}]}]}
